Drawing on ChEMBL document CHEMBL3507680, “University of Dundee, Gates Library screen for HepG2 cell viability”, this text covers cytotoxicity for 72 molecules.

This data set in a line: Human HepG2 cell viability assay in 384 well format. The format is toxicity, cell-based. Set-up: dose 125 nL, time 70.5 hour; concentration not given beside the values. Particulars: HepG2 cells, read-out: Inhibition.

As to `COc1cccc(-c2cc(NCc3nc(C)cs3)n(C)n2)c1`, the cytotoxicity at 70.5 h was -9.85%.

Regarding `COc1cccc(-c2cc(NCc3nccn3C)n(C)n2)c1`, the cytotoxicity at 70.5 h was -6.65%.

`Cc1nnc(C(C)N2CCN(Cc3noc(C(C)(C)C)n3)CC2)o1` (configuration not stated): the cytotoxicity at 70.5 h was -3.37%.

As for `COc1cc2c(cc1CNCc1cccnc1OC)OC(C)C2` (configuration not stated), the cytotoxicity at 70.5 h was -8.84%.

With `Cc1cnn(C2CCCN(C(=O)c3cc[nH]n3)C2)c1` (configuration not stated), the cytotoxicity at 70.5 h was -5.43%.

In the case of `Cc1cnn(C2CCCN(C(=O)c3cc(-c4ccco4)[nH]n3)C2)c1` (configuration not stated), the cytotoxicity at 70.5 h is -11.8%.

Consider `COc1ccc(S(=O)(=O)Nc2cccnc2-n2cncn2)c(C)c1`, for which the cytotoxicity at 70.5 h is -8.45%.

With `CC1CN(C)CCN1C(=O)c1cccn1Cc1cccs1` (configuration not stated), the cytotoxicity at 70.5 h is -8.42%.

`CCN(Cc1ccoc1)C(=O)Nc1ccccc1CN1CCOCC1`: the cytotoxicity at 70.5 h is 7.89%.

For `CC(C)(C)CN(CCO)C(=O)Nc1cccc(N2CCNC2=O)c1`, the cytotoxicity at 70.5 h was -4.71%.

Consider `CC(C)(C)CN(CCC#N)C(=O)Nc1cccc(N2CCNC2=O)c1`, for which the cytotoxicity at 70.5 h was -10.7%.

Consider `COc1ccc(CCCC(=O)N2CCCC(n3cncn3)C2)cc1` (configuration not stated), for which the cytotoxicity at 70.5 h was -2.82%.

`COc1ccc(C2CCN(CCCC#N)CC2)cc1`: the cytotoxicity at 70.5 h worked out at 27.7%.

As for `CNC(=O)c1sc(C(NC(=O)c2ccccc2)C2CC2)nc1C` (configuration not stated), the cytotoxicity at 70.5 h was -4.95%.

For the molecule `CCSc1cc(C(=O)NC(C)c2cccc(N3CCOC3=O)c2)ccn1` (configuration not stated), the cytotoxicity at 70.5 h was found to be 16.4%.

For `CC(NC(=O)c1ccc2c(c1)COC2)c1cccc(N2CCOC2=O)c1` (configuration not stated), the cytotoxicity at 70.5 h was -0.257%.

On to `Cc1nc(CN(C)S(=O)(=O)c2ccc(F)cc2Br)no1`, for which the cytotoxicity at 70.5 h was determined as 14.6%.

With `COC(=O)c1ccc(Cn2cccc(C(F)(F)F)c2=O)s1`, the cytotoxicity at 70.5 h is -2.65%.

For `CCc1noc(C(C)N2CCN(Cc3noc(C4CC4)n3)CC2)n1` (configuration not stated), the cytotoxicity at 70.5 h was -8.62%.

With `Cc1noc(C)c1CCCNC(=O)Nc1cccc([S+](C)[O-])c1` (configuration not stated), the cytotoxicity at 70.5 h was -3.63%.

`CC(C(=O)Nc1cccc(C(F)(F)F)c1)N(C)CCN1CCOCC1` (configuration not stated): the cytotoxicity at 70.5 h was -8.82%.

Regarding `Cc1ccc(S(=O)(=O)N(C)CC(C)O)c(F)c1` (configuration not stated), the cytotoxicity at 70.5 h came to 21.4%.

On to `COC(=O)c1ccc(NC2CCN(CC(F)(F)F)C2=O)cc1C` (configuration not stated), for which the cytotoxicity at 70.5 h worked out at 26.2%.

For `CCc1nc(CN2CCCN(C(=O)c3ccccc3)CC2)cs1`, the cytotoxicity at 70.5 h is -1.48%.

For the molecule `CC(NC(=O)CCNC(=O)c1ccoc1)c1ccccc1` (configuration not stated), the cytotoxicity at 70.5 h was -7.29%.

Consider `Cc1nn(-c2ccccc2)c(C)c1CNC(=O)NC1CC1`, for which the cytotoxicity at 70.5 h was -3.17%.

As for `Cc1nnc(NC(=O)N2CCC(N3CCCCC3)CC2)s1`, the cytotoxicity at 70.5 h is -8.18%.

As to `NC(=O)CSc1ccccc1NCc1nc(C2CC2)no1`, the cytotoxicity at 70.5 h amounted to 15%.

With `COc1ccc(OC)c(-c2csc(-c3cccc(C(=O)O)c3)n2)c1`, the cytotoxicity at 70.5 h was -16.7%.

Regarding `COCCNC(=O)NCC(C)c1ccccc1OC` (configuration not stated), the cytotoxicity at 70.5 h is -8.45%.

On to `CCc1nc(CN2CCCN(C(=O)c3cccn3C)CC2)cs1`, for which the cytotoxicity at 70.5 h stood at 2.1%.

In the case of `O=C(Cn1cncn1)NCC1CCN(Cc2ccccc2Cl)CC1`, the cytotoxicity at 70.5 h amounted to 2.75%.

Take `CS(=O)(=O)c1cccc(S(=O)(=O)NC(=O)c2cscn2)c1`: the cytotoxicity at 70.5 h was -4.27%.

Consider `O=C(CCC(=O)N1CCOCC1c1ccccc1)c1cccs1` (configuration not stated), for which the cytotoxicity at 70.5 h was -2.2%.

On to `O=C(NS(=O)(=O)c1cccc(C(F)(F)F)c1)c1cnsn1`, for which the cytotoxicity at 70.5 h was -5.69%.

`COc1cc2c(nn1)CCN(Cc1noc(-c3ccccc3)n1)C2`: the cytotoxicity at 70.5 h came out at 2.93%.

Turning to `COc1cc2c(nn1)CCN(Cc1nc(Cc3ccccc3)no1)C2`, the cytotoxicity at 70.5 h stood at 2.14%.

Consider `CNC(=O)c1ccc(NC2CCN(CC(F)(F)F)C2=O)cc1Cl` (configuration not stated), for which the cytotoxicity at 70.5 h was -7.41%.

As for `COc1c(CNCc2ccccc2CN2CCOCC2)c(C)nn1C`, the cytotoxicity at 70.5 h was -7.68%.

`CC(=O)N(Cc1ncc(C)o1)C1CCN(CCOc2ccccc2)C1` (configuration not stated): the cytotoxicity at 70.5 h turned out to be 17.4%.

As to `Cc1nc(CN(C)Cc2cc3c(cc2OC(F)F)OCO3)cs1`, the cytotoxicity at 70.5 h is -7.91%.

Take `Cc1ccoc1CNCc1nnc2n1CC(C(F)(F)F)CC2` (configuration not stated): the cytotoxicity at 70.5 h is -12.1%.

Turning to `CCn1ccnc1CN1CCC(N(Cc2ncc(C)o2)C(C)=O)C1` (configuration not stated), the cytotoxicity at 70.5 h was 4.91%.

For the molecule `CC(=O)N(Cc1ncc(C)o1)C1CCN(Cc2ccc(F)c(F)c2)C1` (configuration not stated), the cytotoxicity at 70.5 h was -4.3%.

`CC(=O)N(Cc1ncc(C)o1)C1CCN(Cc2nnc(C3CC3)o2)C1` (configuration not stated): the cytotoxicity at 70.5 h is 10%.

As to `O=C(NCc1cccnc1-n1cncn1)c1cncc(Br)c1`, the cytotoxicity at 70.5 h was found to be 0.0598%.

For the molecule `CCSc1cc(C(=O)NC2CCN(C(=O)c3ccncc3)CC2)ccn1`, the cytotoxicity at 70.5 h is -0.0904%.

Take `CCCN1CCC(NC(=O)c2ccnc(SCC)c2)CC1`: the cytotoxicity at 70.5 h was -0.521%.

Regarding `CCn1cc(NC(=O)C2CCN(Cc3nc(C)c(C)o3)CC2)cn1`, the cytotoxicity at 70.5 h was -11.4%.

Take `CN(C)c1cc(C(=O)NCc2cccnc2-n2cncn2)ccn1`: the cytotoxicity at 70.5 h was -16.1%.

Turning to `Cc1ccc(CNC(CN2CCN(C)CC2)c2ccccc2)cc1C` (configuration not stated), the cytotoxicity at 70.5 h was determined as 35.8%.

For the molecule `CCCNC(=O)CCNc1cncc(-n2nc(C)cc2C)n1`, the cytotoxicity at 70.5 h is -4.63%.

Turning to `Fc1ccc(CNCc2nnc3n2CC(C(F)(F)F)CC3)c(F)c1` (configuration not stated), the cytotoxicity at 70.5 h is -7.11%.

For `Cc1cccc2nc(CNC(=O)N3CCC(N4CC=CC4)C3)cn12` (configuration not stated), the cytotoxicity at 70.5 h was -14.4%.

As for `CC(=O)N(Cc1ncc(C)o1)C1CCN(CCc2ccncc2)C1` (configuration not stated), the cytotoxicity at 70.5 h was found to be 7.37%.

On to `O=S(=O)(c1ccc(F)cc1F)N1CCCCC1c1nnc2n1CCCC2` (configuration not stated), for which the cytotoxicity at 70.5 h was -12.7%.

With `Cc1cnn(CC2CCCCN2C(=O)CCCc2nc(C)no2)c1` (configuration not stated), the cytotoxicity at 70.5 h was -5.29%.

Turning to `Cc1ccc(C2CCCN2S(=O)(=O)N(C)Cc2cnccn2)o1` (configuration not stated), the cytotoxicity at 70.5 h was -3.89%.

`Cc1nc(CN2CCN(C(=O)CCC(=O)c3ccccc3)CC2)no1`: the cytotoxicity at 70.5 h amounted to 12.6%.

Take `CCn1c(C)nnc1CN(C)C1CCN(Cc2c(C)noc2C)C1` (configuration not stated): the cytotoxicity at 70.5 h is -4.05%.

`CCn1c(C)nnc1CN(C)C1CCN(Cc2ccon2)C1` (configuration not stated): the cytotoxicity at 70.5 h is -1.86%.

As for `Cc1ccccc1OCCSc1nnc(CC2CCS(=O)(=O)C2)n1C` (configuration not stated), the cytotoxicity at 70.5 h was -7.8%.

Turning to `O=C(NCCN1CCOCC1)c1cc(Cl)c2c(c1)OCCCO2`, the cytotoxicity at 70.5 h is -5.1%.

For `Cc1cccc(Nc2c(C#N)c(=O)n(C)c(=O)n2C)c1`, the cytotoxicity at 70.5 h was -3.97%.

Consider `COc1ccc(CNC(=O)C2=NN(c3ccc(C)cc3)C(=O)CN2)cc1`, for which the cytotoxicity at 70.5 h was -5.36%.

As to `Cc1noc(CN2CCN(CCS(C)(=O)=O)CC2)n1`, the cytotoxicity at 70.5 h was -2.73%.

As for `CC(C)N1CC(C(=O)NC(C)(C)CNC(=O)OC(C)(C)C)CC1=O` (configuration not stated), the cytotoxicity at 70.5 h was -3.84%.

As to `CC1CCCCN1C(=O)Cn1cc(I)cn1` (configuration not stated), the cytotoxicity at 70.5 h was -1.82%.

With `CC1CCN(C(=O)Cn2cc(I)cn2)CC1`, the cytotoxicity at 70.5 h stood at 0.739%.

Consider `CC(C)Cc1ccc(C(=O)Cn2cnnc2[S+](C)[O-])cc1` (configuration not stated), for which the cytotoxicity at 70.5 h is -3.94%.

For `C[S+]([O-])c1nncn1CC(=O)c1cccc(Br)c1` (configuration not stated), the cytotoxicity at 70.5 h was -3.69%.

Regarding `Cc1nn(C)c(N(C)C)c1CNCc1cccc(CN(C)C)c1`, the cytotoxicity at 70.5 h is -3.97%.
